For series [1], the target named is Protein cereblon/Heat shock protein HSP 90-alpha (Homo sapiens, UniProt P07900+Q96SW2). The experiment in a line: PROTAC activity at CRBN/HSP90alpha in human MCF7 cells assessed as induction of HSP90alpha degradation at 0.5 uM incubated for 8 hrs by Western blot analysis. Format: cell-based. For orientation: Immunoblotting shows a protein as a band on a membrane.

The test system of a further series is MX1. The experiment in a line: Antiproliferative activity against human MX1 cells assessed as inhibition of cell proliferation incubated for 72 hrs by MTT assay. Format: functional, cell-based. To be noted: MX1, 72 h.
A further series relates to MDA-MB-231. The experiment in a line: Antiproliferative activity against human MDA-MB-231 cells assessed as inhibition of cell proliferation incubated for 72 hrs by MTT assay. Format: functional, cell-based. To be noted: MDA-MB-231, 72 h. On the technique in general: Formazan colour is commonly taken as a measure of viable cells.
The subject of the next series is MDA-MB-468. In words: Antiproliferative activity against human MDA-MB-468 cells assessed as inhibition of cell proliferation incubated for 72 hrs by MTT assay. The class given is functional, cell-based. To be noted: MDA-MB-468, 72 h.
Series [2] addresses Protein cereblon/Heat shock protein HSP 90-beta (Homo sapiens) (UniProt P08238+Q96SW2). In words: PROTAC activity at CRBN/HSP90beta in human MCF7 cells assessed as induction of HSP90beta degradation at 0.5 uM incubated for 8 hrs by Western blot analysis. The class given is cell-based.
The subject of series [3] is MCF7. In words: Antiproliferative activity against human MCF7 cells assessed as inhibition of cell proliferation incubated for 72 hrs by MTT assay. Format: functional, cell-based. To be noted: MCF7, 72 h.
In series [4] the target is T1, Heat shock protein HSP 90-alpha (Homo sapiens, UniProt P07900). The experiment in a line: Inhibition of 6His-tagged human HSP90alpha N-terminal domain (1 to 223 residues) expressed in Escherichia coli BL21 DE3 cells incubated for 24 hrs by fluorescence polarization assay.
Series [5] addresses Heat shock protein HSP 90-beta (Homo sapiens, UniProt P08238). The experiment in a line: Inhibition of HSP90beta (unknown origin) incubated for 24 hrs by fluorescence polarization assay. Background: In fluorescence polarisation assays a small probe gives low polarisation when free and higher when bound to something large.
Series [6] concerns MCF7. In words: Potency index, ratio of AT13387 IC50 to test compound IC50 for antiproliferative activity against human MCF7 cells assessed as inhibition of cell proliferation incubated for 72 hrs by MTT assay. Format: functional.
The target in series [7] is T1, Heat shock protein HSP 90-alpha. The experiment in a line: Induction of HSP90alpha degradation in human MCF7 cells at 0.5 uM incubated for 8 hrs by Western blot analysis. Format: cell-based.
Series [8] relates to 4T1. In words: Antitumor activity against mouse 4T1 cells implanted in BALB/c mouse assessed as tumor growth inhibition at 50 mg/kg, ip administered twice a week and measured after 20 days relative to control. Format: functional. To be noted: 4T1, 480 h, time 20 day, read-out: TGI.
In series [9] the target is T1, Heat shock protein HSP 90-alpha. In words: Induction of HSP90alpha degradation in human MCF7 cells at 0.5 uM incubated for 8 hrs in presence of pomalidomide by Western blot analysis. The class given is cell-based.
Series [10] concerns 4T1. In words: Antitumor activity against mouse 4T1 cells implanted in BALB/c mouse assessed as reduction in tumor weight at 50 mg/kg, ip administered twice a week and measured after 20 days. The class given is functional, organism-based. To be noted: time 20.0 day.
The nature of series [11]: Toxicity in BALB/c mouse implanted with mouse 4T1 cells assessed as effect on body weight at 50 mg/kg, ip administered twice a week and measured after 20 days. The class given is organism-based. To be noted: in vivo, 480 h, time 20 day.

The results in this text go back to ChEMBL document CHEMBL5625235, “Discovery of X10g as a selective PROTAC degrader of Hsp90α protein for treating breast cancer” (Eur J Med Chem, 2023).

The IC50 is the concentration at which inhibition is half-maximal.

Molecules are shown by their SMILES. Activity calls are given as the source filed them. No cut-off for these calls is given here. A value given as a limit tells only on which side of the number the result lay.

Chain of Heat shock protein HSP 90-beta (P08238 whole entry): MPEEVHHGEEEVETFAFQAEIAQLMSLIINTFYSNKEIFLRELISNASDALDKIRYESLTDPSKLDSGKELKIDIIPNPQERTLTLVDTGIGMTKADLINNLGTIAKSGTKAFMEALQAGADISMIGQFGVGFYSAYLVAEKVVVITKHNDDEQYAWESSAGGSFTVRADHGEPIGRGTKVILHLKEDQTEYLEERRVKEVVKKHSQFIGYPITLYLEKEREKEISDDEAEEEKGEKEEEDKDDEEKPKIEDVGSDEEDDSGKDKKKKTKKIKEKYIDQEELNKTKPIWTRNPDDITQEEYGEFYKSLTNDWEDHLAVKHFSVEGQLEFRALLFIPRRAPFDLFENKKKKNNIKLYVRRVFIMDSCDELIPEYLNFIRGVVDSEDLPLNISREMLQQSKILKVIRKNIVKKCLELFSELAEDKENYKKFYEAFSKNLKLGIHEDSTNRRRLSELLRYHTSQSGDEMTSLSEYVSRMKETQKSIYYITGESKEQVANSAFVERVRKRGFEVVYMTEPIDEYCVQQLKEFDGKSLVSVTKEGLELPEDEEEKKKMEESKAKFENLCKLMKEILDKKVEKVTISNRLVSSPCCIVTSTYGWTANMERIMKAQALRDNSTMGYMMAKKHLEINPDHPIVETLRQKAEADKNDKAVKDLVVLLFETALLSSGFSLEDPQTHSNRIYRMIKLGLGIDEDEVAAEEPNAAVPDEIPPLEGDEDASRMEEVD

With `CC(C)c1cc(C(=O)N2Cc3ccc(CN4CCN(CCCCC(=O)Nc5cccc6c5C(=O)N(C5CCC(=O)NC5=O)C6=O)CC4)cc3C2)c(O)cc1O` (centres undefined), the outcome in series [1] and in series [2] was inactive. Moreover, the IC50 was 6.78 µM in the series with MX1, 18.8 µM in the series on MDA-MB-231, 5.27 µM in the series on MDA-MB-468 and 4.28 µM with MCF7 [3].
As for `CC(C)c1cc(C(=O)N2Cc3ccc(CN4CCN(CCCCCC(=O)Nc5cccc6c5C(=O)N(C5CCC(=O)NC5=O)C6=O)CC4)cc3C2)ccc1O` (centres undefined), the IC50 was 34.6 µM in the series with MX1, 71.8 µM with MDA-MB-231, 30.1 µM in the series with MDA-MB-468 and 30.5 µM in the series with MCF7 [3].
Regarding `CC(C)c1cc(C(=O)N2Cc3ccc(CN4CCN(C(=O)CNc5cccc6c5CN(C5CCC(=O)NC5=O)C6=O)CC4)cc3C2)c(O)cc1O` (centres undefined), the result in series [1] and in series [2] was inactive. Moreover, the IC50 with MX1 came to 3.46 µM; in the series with MDA-MB-231 it was 7.69 µM; in the series with MDA-MB-468, 5.1 µM; in the series with MCF7 [3], 2.03 µM.
For `CC(C)c1cc(C(=O)N2Cc3ccc(CN4CCN(CCCCCCCC(=O)Nc5cccc6c5C(=O)N(C5CCC(=O)NC5=O)C6=O)CC4)cc3C2)c(O)cc1O` (centres undefined), the result in series [1] and in series [2] was inactive. Moreover, the IC50 in the series with MX1 is 4.94 µM; with MDA-MB-231, 62.8 µM; with MDA-MB-468, 30.6 µM; in the series on MCF7 [3] it was 6.03 µM.
`CC(C)c1cc(C(=O)N2Cc3ccc(CN4CCN(C(=O)CCCNc5cccc6c5CN(C5CCC(=O)NC5=O)C6=O)CC4)cc3C2)c(O)cc1O` (centres undefined): the outcome in [1] and in series [2] was inactive. Also, the IC50 in the series on MX1 came out at 1.19 µM; in the series with MDA-MB-231, 7.87 µM; with MDA-MB-468, 25.8 µM; in the series with MCF7 [3], 3.42 µM.
Consider `CC(C)c1cc(C(=O)N2Cc3ccc(CN4CCN(C(=O)CCCCCNc5cccc6c5CN(C5CCC(=O)NC5=O)C6=O)CC4)cc3C2)c(O)cc1O` (centres undefined), for which the result in series [1] and in series [2] was inactive. In addition, the IC50 stood at 1.93 µM in the series on MX1, 4.79 µM in the series with MDA-MB-231, 0.75 µM with MDA-MB-468 and 4.47 µM in the series on MCF7 [3].
With `CC(C)c1ccc(O)c(C(=O)N2Cc3ccccc3C2)c1`, the values for the IC50 in [4] and in series [5] were 3.21 µM and 1.6 µM, respectively.
Regarding `CC(C)c1cc(C(=O)N2Cc3ccc(CN4CCN(C(=O)CCCCNc5cccc6c5CN(C5CCC(=O)NC5=O)C6=O)CC4)cc3C2)c(O)cc1O` (centres undefined), the outcome in series [1] and in series [2] was inactive. The IC50 in the series on MX1 came to 2.02 µM; in the series with MDA-MB-231, 4.3 µM; in the series with MDA-MB-468, 13.2 µM; in the series with MCF7 [3] it was 1.3 µM.
As for `CC(C)c1cc(C(=O)N2Cc3ccc(CN4CCN(CCC(=O)Nc5cccc6c5C(=O)N(C5CCC(=O)NC5=O)C6=O)CC4)cc3C2)c(O)cc1O` (centres undefined), the outcome in series [1] and in series [2] was inactive. The “Ratio IC50” value in the series with MCF7 [6] is given as approximately 35. In addition, the IC50 in the series on MX1 stood at 0.09 µM; with MDA-MB-231, 6.8 µM; in the series with MDA-MB-468 it was 6.19 µM; with MCF7 [3], 0.03 µM.
`CC(C)c1cc(C(=O)N2Cc3ccc(CN4CCN(CCCCCC(=O)Nc5cccc6c5C(=O)N(C5CCC(=O)NC5=O)C6=O)CC4)cc3C2)c(O)cc1O` (centres undefined): the outcome in series [1] and in series [2] was inactive. Besides, the IC50 was 0.03 µM with MX1, 5.11 µM in the series with MDA-MB-231, 27.2 µM in the series on MDA-MB-468 and 0.58 µM in the series on MCF7 [3].
Regarding `CC(C)c1cc(C(=O)N2Cc3ccc(CN4CCN(CCCCCCC(=O)Nc5cccc6c5C(=O)N(C5CCC(=O)NC5=O)C6=O)CC4)cc3C2)c(O)cc1O` (centres undefined), the outcome in series [1] and in [2] was inactive. Moreover, the IC50 with MX1 stood at 0.31 µM; in the series with MDA-MB-231 it was 12.1 µM; with MDA-MB-468, 3.67 µM; with MCF7 [3] it was 0.92 µM.
Regarding `Nc1cccc2c1CN(C1CCC(=O)NC1=O)C2=O` (centres undefined) [LENALIDOMIDE], the IC50 in the series on MX1, in the series with MDA-MB-231, in the series on MDA-MB-468 and with MCF7 [3] was more than 100 µM each time.
Turning to `CC(C)c1cc(C(=O)N2Cc3ccccc3C2)ccc1O`, the IC50 turned out to be 0.41 µM in [4] and 4.47 µM in series [5].
For the compound `Nc1cccc2c1C(=O)N(C1CCC(=O)NC1=O)C2=O` (centres undefined) [POMALIDOMIDE], the outcome in [7] was inactive. In addition, the IC50 in the series on MX1, in the series on MDA-MB-231, with MDA-MB-468 and with MCF7 [3] was more than 100 µM throughout.
In turn, `CC(C)c1cc(C(=O)N2Cc3ccccc3C2)c(O)cc1O` gave an IC50 in [5] of 0.004 µM.
Turning to `CC(C)c1cc(C(=O)N2Cc3ccc(CN4CCN(CCCCC(=O)Nc5cccc6c5C(=O)N(C5CCC(=O)NC5=O)C6=O)CC4)cc3C2)ccc1O` (centres undefined), the IC50 turned out to be 76.6 µM in the series on MX1, 94.2 µM with MDA-MB-231, 87.1 µM with MDA-MB-468 and 48.2 µM in the series with MCF7 [3].
Taken in the same sequence, the figures for `CC(C)c1cc(C(=O)N2Cc3ccc(CN4CCN(CCC(=O)Nc5cccc6c5C(=O)N(C5CCC(=O)NC5=O)C6=O)CC4)cc3C2)ccc1O` (centres undefined) were more than 100 µM, more than 100 µM, more than 100 µM and 27.1 µM.
Take `CC(C)c1cc(C(=O)N2Cc3ccc(CN4CCN(CCCC(=O)Nc5cccc6c5C(=O)N(C5CCC(=O)NC5=O)C6=O)CC4)cc3C2)c(O)cc1O` (centres undefined): the outcome in [1] and in series [2] was inactive. The IC50 in the series with MX1 was determined as 0.22 µM; with MDA-MB-231, 2.04 µM; with MDA-MB-468 it was 3.03 µM; with MCF7 [3], 0.02 µM.
Turning to `CC(C)c1cc(C(=O)N2Cc3ccc(CN4CCN(CCCCCCCC(=O)Nc5cccc6c5C(=O)N(C5CCC(=O)NC5=O)C6=O)CC4)cc3C2)ccc1O` (centres undefined), the IC50 was 63 µM with MX1, more than 100 µM in the series with MDA-MB-231, 35.9 µM in the series on MDA-MB-468 and 18.5 µM in the series on MCF7 [3].
The like results for `CC(C)c1cc(C(=O)N2Cc3ccc(CN4CCN(CCCC(=O)Nc5cccc6c5C(=O)N(C5CCC(=O)NC5=O)C6=O)CC4)cc3C2)ccc1O` (centres undefined) were, in that order, 40.8 µM, 72.8 µM, 41.6 µM and 7.5 µM.
For the compound `CC(C)c1cc(C(=O)N2Cc3ccc(CN4CCN(C)CC4)cc3C2)c(O)cc1O` [ONALESPIB], the result in series [7] and in [9] was inactive. Also, the inhibition in vivo at 50 mg/kg in the series with 4T1 [8] came to 43.2%. The IC50 with MX1 worked out at 0.5 µM; in the series with MDA-MB-231, 2.6 µM; in the series on MDA-MB-468, 3.31 µM; in the series with MCF7 [3], 0.84 µM. Moreover, the result with 4T1 [10] was Active. For the same compound, the Activity result in series [11] was “Toxic”.
